The record followed here is patent US10689354B2, “Aminoazole derivative” (Teijin Pharma Limited, priority 2015, dated 2020).

Molecules are shown by their SMILES.

The target in experiment [1] is T1, androgen receptor (AR-LBD) (Rattus norvegicus, UniProt P15207).
T1 construct: 5 μL of 2×AR-LBD/Fluoromone AL Red Complex contained in the kit; purchased Invitrogen
T1 sequence (P15207 651-882 limits assumed): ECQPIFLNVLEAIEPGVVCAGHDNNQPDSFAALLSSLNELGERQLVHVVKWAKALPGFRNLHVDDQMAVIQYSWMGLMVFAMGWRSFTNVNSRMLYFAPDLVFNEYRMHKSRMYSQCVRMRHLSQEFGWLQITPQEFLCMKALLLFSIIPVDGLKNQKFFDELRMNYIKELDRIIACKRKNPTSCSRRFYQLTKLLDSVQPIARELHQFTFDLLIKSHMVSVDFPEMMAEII
Put plainly: Evaluation of androgen receptor affinity (PolarScreen Androgen Receptor Competitor Assay Kit, Red; fluorescence polarization). Conditions: 22° C. for 5 hours, relative to binding rate of 1 μM DHT, read-out: AR affinity (pEC50) (converted). The gist of the method: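 pEC50 values reflect tracer displacement from AR-LBD (Fluoromone AL Red complex) measured by fluorescence polarization after 5 h at 22° C, normalized to 1 μM DHT and fitted with a 4-parameter model.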

Experiment [2] concerns the target T2, human androgen receptor (Homo sapiens, UniProt P10275).
T2 construct: expressed in transfected cells; host or cells: HEK293
T2 sequence (P10275 1-920): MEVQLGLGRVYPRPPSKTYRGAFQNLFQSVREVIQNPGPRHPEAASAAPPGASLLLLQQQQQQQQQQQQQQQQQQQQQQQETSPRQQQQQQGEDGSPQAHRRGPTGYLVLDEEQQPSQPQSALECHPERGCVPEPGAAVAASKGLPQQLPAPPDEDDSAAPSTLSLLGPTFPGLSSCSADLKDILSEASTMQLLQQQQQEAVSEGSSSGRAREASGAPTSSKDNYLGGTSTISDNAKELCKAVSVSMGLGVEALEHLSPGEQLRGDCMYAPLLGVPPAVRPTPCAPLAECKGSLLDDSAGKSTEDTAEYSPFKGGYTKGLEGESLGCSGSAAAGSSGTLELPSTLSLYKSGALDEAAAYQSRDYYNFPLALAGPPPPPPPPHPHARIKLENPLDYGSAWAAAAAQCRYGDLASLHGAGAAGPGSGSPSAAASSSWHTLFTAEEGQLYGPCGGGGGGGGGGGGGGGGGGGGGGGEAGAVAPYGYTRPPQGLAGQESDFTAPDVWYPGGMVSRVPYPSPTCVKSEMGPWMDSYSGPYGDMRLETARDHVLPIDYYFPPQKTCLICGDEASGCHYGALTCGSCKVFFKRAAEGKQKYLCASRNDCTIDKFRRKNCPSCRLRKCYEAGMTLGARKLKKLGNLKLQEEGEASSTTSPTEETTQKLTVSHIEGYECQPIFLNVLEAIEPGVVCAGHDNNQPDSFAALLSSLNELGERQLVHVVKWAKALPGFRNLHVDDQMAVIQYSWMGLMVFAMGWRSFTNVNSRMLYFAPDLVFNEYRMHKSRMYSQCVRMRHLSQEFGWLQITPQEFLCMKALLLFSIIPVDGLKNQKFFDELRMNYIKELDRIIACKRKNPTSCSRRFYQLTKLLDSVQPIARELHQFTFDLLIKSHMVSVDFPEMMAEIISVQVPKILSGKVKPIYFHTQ
Put plainly: Reporter assay of an androgen receptor responsive sequence (luciferase, transiently transfected HEK293 cells). The format is cell-based. To be noted: 24 hours incubation, relative to activity of 100 nM DHT, read-out: AR transcriptive activity (pEC50) (converted). The method, boiled down: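 HEK293 cells transiently transfected for 3 h with ARE-firefly luciferase, full-length human AR and TK-Renilla plasmids, then exposed to compound for 24 h at 37 °C in 5% charcoal-treated FBS/DMEM. Dual-Glo luminescence read; pEC50 from 4-parameter fit relative to 100 nM DHT.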
Background: In a reporter assay the amount or activity of a reporter protein is the signal.

In the case of `CS(=O)(=O)NC(=O)c1nc(N(Cc2cc3ccccc3s2)c2ccc(C#N)cc2)sc1Cl` [Example 280, 2-[N-(benzothiophen-2-ylmethyl)-4-cyano-anilino]-5-chloro-N-methylsulfonyl-thiazole-4-carboxamide], the EC50 in experiment [1] was 50.1 nM; in experiment [2], 25.1 nM.
With `COCCCS(=O)(=O)NC(=O)c1nc(N(Cc2ncc(C(F)(F)F)cc2F)c2ccc(C#N)cc2)sc1C` [Example 171, 2-[4-cyano-N-[[3-fluoro-5-(trifluoromethyl)-2-pyridyl]methyl]anilino]-N-(3-methoxypropylsulfonyl)-5-methyl-thiazole-4-carboxamide], the EC50 is 126 nM in experiment [1] and 631 nM in experiment [2].
Turning to `COCCCS(=O)(=O)NC(=O)c1nc(N(Cc2cc(OC(F)F)ccc2F)c2ccc(C#N)cc2)sc1C` [Compound 521, 2-[4-cyano-N-[[5-(difluoromethoxy)-2-fluoro-phenyl]methyl]anilino]-N-(3-methoxypropylsulfonyl)-5-methyl-thiazole-4-carboxamide], the results for the EC50 in experiment [1] and in experiment [2] were 31.6 nM and 1260 nM, respectively.
With `Cc1sc(N(CCOc2ccccc2)c2ccc(C#N)cc2)nc1C(=O)NS(C)(=O)=O` [Compound 20, 2-[4-cyano-N-(2-phenoxyethyl)anilino]-5-methyl-N-methylsulfonyl-thiazole-4-carboxamide], the EC50 in experiment [1] was 63.1 nM; in experiment [2], 1580 nM.
Regarding `COCCCS(=O)(=O)NC(=O)c1nc(N(Cc2ccc(OC(F)F)cc2)c2ccc(C#N)cc2)sc1C` [Example 165, 2-[4-cyano-N-[[4-(difluoromethoxy)phenyl]methyl]anilino]-N-(3-methoxypropylsulfonyl)-5-methyl-thiazole-4-carboxamide], the EC50 in experiment [1] was 50.1 nM; in experiment [2], 158 nM.
For the compound `COc1ccc(CN(c2ccc(C#N)cc2)c2nc(C(=O)NS(C)(=O)=O)c(C)s2)cc1` [Compound 342, 2-[4-cyano-N-[(4-methoxyphenyl)methyl]anilino]-5-methyl-N-methylsulfonyl-thiazole-4-carboxamide], the EC50 was 63.1 nM in experiment [1] and 25.1 nM in experiment [2].
In the case of `Cc1sc(N(Cc2cccc3nsnc23)c2ccc(C#N)cc2)nc1C(=O)NS(C)(=O)=O` [Compound 437, 2-[N-(2,1,3-benzothiadiazol-4-ylmethyl)-4-cyano-anilino]-5-methyl-N-methylsulfonyl-thiazole-4-carboxamide], the EC50 is 50.1 nM in experiment [1] and 126 nM in experiment [2].
Take `Cc1oc(N(Cc2cccc(Cl)c2)c2ccc(C#N)cc2)nc1C(=O)NS(C)(=O)=O` [Compound 611, 2-[N-[(3-chlorophenyl)methyl]-4-cyano-anilino]-5-methyl-N-methylsulfonyl-oxazole-4-carboxamide]: the values for the EC50 in experiment [1] and in experiment [2] were 79.4 nM and 2000 nM, respectively.
As for `Cc1sc(N(Cc2ccc(OC(F)F)cn2)c2ccc(C#N)cc2)nc1C(=O)NS(C)(=O)=O` [Compound 511, 2-[4-cyano-N-[[5-(difluoromethoxy)-2-pyridyl]methyl]anilino]-5-methyl-N-methylsulfonyl-thiazole-4-carboxamide], the EC50 in experiment [1] is 158 nM; in experiment [2], 316 nM.
In the case of `Cc1sc(N(Cc2cc(F)cc(F)c2)c2ccc(C#N)cc2)nc1C(=O)NS(C)(=O)=O` [Compound 96, 2-[4-cyano-N-[(3,5-difluorophenyl)methyl]anilino]-5-methyl-N-methylsulfonyl-thiazole-4-carboxamide], the values for the EC50 in experiment [1] and in experiment [2] were 79.4 nM and 100 nM, respectively.
In the case of `CCS(=O)(=O)NC(=O)c1nc(N(Cc2ccc(Cl)cc2)c2ccc(C#N)cc2)oc1C` [Compound 627, 2-[N-[(4-chlorophenyl)methyl]-4-cyano-anilino]-N-ethylsulfonyl-5-methyl-oxazole-4-carboxamide], the EC50 in experiment [1] is 50.1 nM; in experiment [2] it was 1000 nM.
With `CCc1oc(N(Cc2ccc(Br)cn2)c2ccc(C#N)cc2)nc1C(=O)NS(C)(=O)=O` [Compound 636, 2-[N-[(5-bromo-2-pyridyl)methyl]-4-cyano-anilino]-5-ethyl-N-methylsulfonyl-oxazole-4-carboxamide], the EC50 is 398 nM in experiment [1] and 1580 nM in experiment [2].
Take `Cc1sc(N(Cc2cccc(N3CCCCC3)c2)c2ccc(C#N)cc2)nc1C(=O)NS(C)(=O)=O` [Example 217, 2-[4-cyano-N-[[3-(1-piperidyl)phenyl]methyl]anilino]-5-methyl-N-methylsulfonyl-thiazole-4-carboxamide]: the values for the EC50 in experiment [1] and in experiment [2] were 50.1 nM and 3160 nM, respectively.
With `Cc1sc(N(Cc2csc(COc3ccccc3)n2)c2ccc(C#N)cc2)nc1C(=O)NS(C)(=O)=O` [Compound 465, 2-[4-cyano-N-[[2-(phenoxymethyl)thiazol-4-yl]methyl]anilino]-5-methyl-N-methylsulfonyl-thiazole-4-carboxamide], the EC50 in experiment [1] was 25.1 nM; in experiment [2], 794 nM.
Turning to `COCCCS(=O)(=O)NC(=O)c1nc(N(Cc2ccc(Cl)cc2OC(F)F)c2ccc(C#N)cc2)sc1C` [Example 194, 2-[N-[[4-chloro-2-(difluoromethoxy)phenyl]methyl]-4-cyano-anilino]-N-(3-methoxypropylsulfonyl)-5-methyl-thiazole-4-carboxamide], the EC50 in experiment [1] was 63.1 nM; in experiment [2], 2510 nM.
In the case of `Cc1sc(N(Cc2ccoc2)c2ccc(C#N)cc2)nc1C(=O)NS(C)(=O)=O` [Compound 86, 2-[4-cyano-N-(3-furylmethyl)anilino]-5-methyl-N-methylsulfonyl-thiazole-4-carboxamide], the EC50 is 251 nM in experiment [1] and 1580 nM in experiment [2].
As to `Cc1sc(N(Cc2cccc(=O)[nH]2)c2ccc(C#N)cc2)nc1C(=O)NS(C)(=O)=O` [Compound 493, 2-[4-cyano-N-[(6-oxo-1H-pyridin-2-yl)methyl]anilino]-5-methyl-N-methylsulfonyl-thiazole-4-carboxamide], the EC50 in experiment [1] was more than 2000 nM; in experiment [2], more than 10000 nM.
With `CCc1oc(N(Cc2ccc(Cl)c(F)c2)c2ccc(C#N)cc2)nc1C(=O)NS(C)(=O)=O` [Compound 651, 2-[N-[(4-chloro-3-fluoro-phenyl)methyl]-4-cyano-anilino]-5-ethyl-N-methylsulfonyl-oxazole-4-carboxamide], the EC50 in experiment [1] is 39.8 nM; in experiment [2] it was 200 nM.
With `COc1cccc(CCN(Cc2ccccc2)c2nc(C(=O)NS(C)(=O)=O)c(C)s2)c1` [Example 308, 2-[benzyl-[2-(3-methoxyphenyl)ethyl]amino]-5-methyl-N-methylsulfonyl-thiazole-4-carboxamide], the EC50 in experiment [1] is 79.4 nM; in experiment [2] it was 5010 nM.
As to `Cc1sc(N(Cc2ccc(-c3ccc(F)cc3)nc2)c2ccc(C#N)cc2)nc1C(=O)NS(C)(=O)=O` [Compound 592, 2-[4-cyano-N-[[6-(4-fluorophenyl)-3-pyridyl]methyl]anilino]-5-methyl-N-methylsulfonyl-thiazole-4-carboxamide], the figures for the EC50 in experiment [1] and in experiment [2] were 100 nM and 794 nM, respectively.
The corresponding values for `Cc1cc(CN(CCc2ccc(Cl)cc2)c2nc(C(=O)NS(C)(=O)=O)c(C)s2)no1` [Compound 508, 2-[2-(4-chlorophenyl)ethyl-[(5-methylisoxazol-3-yl)methyl]amino]-5-methyl-N-methylsulfonyl-thiazole-4-carboxamide] are 316 nM and 5010 nM.
